One data set deals with IL-1β, human whole blood. As to the kind of experiment: Whole blood assay for IL-1β production. Type of data set: cell-based. Particulars: read-out: Whole human blood IC50. The essentials: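 Human whole blood collected on Na2EDTA was treated with serially diluted compound in saline and then stimulated with LPS at 5.0 ng/ml final, for 16-18 h at 30 °C, in duplicate or triplicate. Plasma IL-1β was measured by ELISA at 1:200 dilution.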

The test system of data set [1] is IL-1β production, LPS-challenged mice. As to the kind of experiment: In vivo acute assay for efficacy as anti-inflammatory agent: LPS-induced IL-1β production in mice. Also noted: species or system mouse. Particulars: for inhibition at 50 mg/kg: po, read-out: percent inhibition of IL-1β production; for inhibition at 50 mg/kg / percent inhibition of IL-1β production: compound PO; for IP % Inhibition / POS Inhibition: % inhibition of IL-β production, 50 mg/kg (Table 3). The essentials: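 CD1 mice (n=6) were challenged with LPS 20 mg/kg IP and given compound IP in olive oil:DMSO:ethanol (90:5:5) 1 h after LPS, or at the time of challenge for some analogs. Blood was taken 7 h after LPS and serum IL-1β was measured by ELISA. Oral gavage at 50 mg/kg was also tested.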

Data set [2] in a line: In vivo rat clearance assay. To be noted: for clearance: plasma, iv. Put shortly: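 Rats cannulated a day beforehand received 10–20 mg/kg by intravenous jugular dosing in propylene glycol/saline with 100 mM sodium bicarbonate. Carotid blood was sampled from 0 to 90 min, and plasma was extracted with acetonitrile/0.1% TFA for HPLC quantification. Clearance from non-linear regression pharmacokinetic analysis.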

Setting [3] is: Mus musculus, 2 h, LPS challenged mice, 50 mg/kg, administered −2 h relative to time of LPS challenge.
The mark [4] stands for this setting: Homo sapiens, * = values obtained upon reassay.
[5] abbreviates: LPS challenged mice, PO, 50 mg/kg, * = values obtained in subsequent assays (Table 4).
The mark [6] stands for this setting: LPS challenged mice, 50 mg/kg, administered 0 h relative to time of LPS challenge.
The mark [7] stands for this setting: LPS challenged mice, 50 mg/kg, administered −2 h relative to time of LPS challenge.

Molecules are shown by their SMILES. “And” between values parts separate entries of the source, which are not always exact repeats. Equal entries are not always repeated. “Also recorded” adds a separate entry of the source. Where two headings read alike, the source gives them in different places.

In the case of `O=C[C@H](CC(=O)O)NC(=O)CN1C(=O)[C@@H](NC(=O)c2cc(Cl)c(O)c(Cl)c2)CN(C(=O)CO)c2ccccc21` [Compound 662, (3S)-3-[(3S)-2-Oxo-3-(3,5-dichloro-4-hydroxybenzoyl)amino-5-(2-hydroxy)acetyl-2,3,4,5-tetrahydro-1H-1,5-benzodiazepine-1-acetylamino]-4-oxo-butyric acid], the IC50 in the data set on IL-1β, human whole blood (Homo sapiens, Table 17) worked out at 800 nM. The inhibition at 50 mg/kg in data set [1] (Mus musculus, 0 h, LPS challenged mice, 50 mg/kg, administered 0 h relative to time of LPS challenge) is 75%; in data set [1] (setting [3]) it was 41%. The compound further returned a clearance in data set [2] (Table 17) of 2.75 mL/min/kg.
As to `O=C[C@H](CC(=O)O)NC(=O)[C@@H]1CCCN2C(=O)CC[C@H](NC(=O)c3ccccc3)C(=O)N12` [Compound 214e, [3S(1S,9S)]3-(9-Benzoylamino-6,10-dioxo-1,2,3,4,7,8,9,10-octahydro-6H-pyridazino[1,2-a][1,2]-diazepine-1-carboxamido)-4-oxobutanoic acid], the IC50 in the data set with IL-1β, human whole blood (setting [4]) turned out to be 1300 nM. Further, the “IP % Inhibition” value in data set [1] (LPS-challenged mice) turned out to be 78%. Moreover, in data set [1] (LPS-challenged mice, PO), the “POS Inhibition” value is recorded as 75%. Besides, in data set [1] (setting [5]), the “Inhibition of IL-1β Production, compound administered 0 hr relative to LPS challenge” value was 48* % and 80* %; the “Inhibition of IL-1β Production, compound administered −1 hr relative to LPS challenge” value is reported as 44* %; the “Inhibition of IL-1β Production, compound administered −2 hr relative to LPS challenge” value is 43* % and 39* %. The “percent inhibition of IL-1β production” value in data set [1] (setting [6]) was 70% and 48%. For the same compound, the “percent inhibition of IL-1β production” value in data set [1] (setting [7]) is given as 43%. The “inhibition of IL-1β secretion/production after IP administration” value in data set [1] (LPS-challenged CD1 mice, IP injection one hour after LPS, result in words) was “dose dependent inhibition; also recorded: inhibit IL-1β production”. In addition, the “inhibition of IL-1β secretion/production after oral (PO) administration” value in data set [1] (LPS-challenged mice, oral gavage, 50 mg/kg, result in words) is “inhibited IL-1β secretion; also recorded: inhibit IL-1β production”. The inhibition at 50 mg/kg in data set [1] (Mus musculus, 1 h, LPS challenged mice, 50 mg/kg, administered −1 h relative to time of LPS challenge) was 44%. Further, the inhibition at 50 mg/kg in data set [1] (setting [3]) worked out at 39%. Moreover, in data set [1] (Mus musculus, CD1 mice, LPS 20 mg/kg IP, compound IP one hour after LPS, blood seven hours after LPS, read-out: ED50, inhibition of IL-1β secretion), the ED50 is around 15 mg/kg. The clearance in data set [2] (10-20 mg/kg) worked out at 12 mL/min/kg.
With `Cc1cc(C(=O)N[C@H]2CCC(=O)N3CCC[C@@H](C(=O)N[C@H](C=O)CC(=O)O)N3C2=O)cc(C)c1O` [Compound 214w], the IC50 with IL-1β, human whole blood (Table 17) is 370 nM. Further, the “percent inhibition of IL-1β production” value in data set [1] (setting [6]) came to 91%; in data set [1] (setting [7]), 11%. Also, the “Clearance Rat, i.v.” value in data set [2] (Table 17) was found to be 15 mL/min/kg.
With `O=C[C@H](CC(=O)O)NC(=O)[C@@H]1CCCN2C(=O)CC[C@H](NC(=O)c3cc4ccsc4s3)C(=O)N12` [Compound 442], the IC50 with IL-1β, human whole blood (setting [4]) was 2000 nM. In addition, the “IP % Inhibition” value in data set [1] (LPS-challenged mice) amounted to 0%. For the same compound, in data set [1] (LPS-challenged mice, PO), the “POS Inhibition” value is on record as 10%. Further, the clearance in data set [2] (10-20 mg/kg) is 54 mL/min/kg.
As to `O=C[C@H](CC(=O)O)NC(=O)CN1C(=O)[C@@H](NC(=O)c2ccccc2)CN(C(=O)CO)c2ccccc21` [Compound 668, (3S)-3-[(3S)-2-Oxo-3-benzoylamino-5-(2-hydroxy)acetyl-2,3,4,5-tetrahydro-1H-1,5-benzodiazepine-1-acetylamino]-4-oxo-butyric acid], in the data set with IL-1β, human whole blood (Homo sapiens, Table 17), the IC50 was found to be 3700 nM. Moreover, the inhibition at 50 mg/kg in data set [1] (Mus musculus, 1 h, LPS challenged mice, 50 mg/kg, administered +1 h relative to time of LPS challenge) turned out to be 53%. Besides, the clearance in data set [2] (Table 17) was found to be 29 mL/min/kg.

In general, IC50 refers to the concentration that inhibits the measured activity by half. Broadly, the inhibition is the drop in the measured response relative to a control, in per cent. The clearance is the volume of plasma or blood freed of the substance per unit of time. Low readings indicate inefficient removal, high ones efficient removal. One may read the ED50 as the midpoint of the dose-response relation.

The values are drawn from patent US20120165319A1, “INHIBITORS OF INTERLEUKIN-1 BETA CONVERTING ENZYME” (VERTEX PHARMACEUTICALS INCORPORATED, priority 1995, published 2012).
